Reference: patent US10981932B2, “Macrocyclic indole derivatives” (Bayer Aktiengesellschaft, priority 2016, dated 2021)
Structures can show the parent of a compound that is named as a salt. Where two headings read alike, the source gives them in different places.

Tests used:
OPM2 = assay: Anti-proliferative effect (CellTiter-Glo, 72 h), OPM2; assay type: cell-based; conditions: OPM2 cells, median, read-out: IC50 antiproliferation assay OPM2 [M] (median)
In short: (§1)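 After seeding, one plate is read right away by CellTiter-Glo luminescence to fix time zero. The treated plates stay at 37 °C in humidified air for 72 h and are then measured with the same reagent and 10 min incubation.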

SUDHL10 [1] = assay: Induction of cytotoxicity (CellTiter-Glo, 5 h), SUDHL10
SUDHL10 [2] = assay: Anti-proliferative effect (CellTiter-Glo, 72 h), SUDHL10; assay type: cell-based; conditions: SUDHL10 cells, antiproliferation, median, read-out: Antiproli SUDHL10 [M] (median)
In short: as §1

MCL-1 = MCL-1 (Homo sapiens, UniProt Q07820); assay: Protein-protein interaction assay MCL-1/Noxa BH3 peptide (MCL-1 assay), TR-FRET; assay type: binding; conditions: MBP-MCL-1 / Noxa BH3-derived peptide, median
Sequence of MCL-1 (Q07820 whole entry): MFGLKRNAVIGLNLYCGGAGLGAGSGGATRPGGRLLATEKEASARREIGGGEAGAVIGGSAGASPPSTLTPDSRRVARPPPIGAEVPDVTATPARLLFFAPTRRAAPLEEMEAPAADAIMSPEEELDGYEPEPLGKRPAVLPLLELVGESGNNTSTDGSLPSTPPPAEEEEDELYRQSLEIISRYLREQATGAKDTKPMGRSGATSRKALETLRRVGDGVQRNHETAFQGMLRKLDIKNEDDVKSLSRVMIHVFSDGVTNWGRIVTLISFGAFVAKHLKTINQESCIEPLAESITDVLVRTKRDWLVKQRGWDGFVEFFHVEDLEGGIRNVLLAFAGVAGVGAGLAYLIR
In short: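 Inhibition values were normalized between DMSO controls with all reagents and controls lacking MCL-1. The binding competition used 1 nM MBP-MCL-1 in pH 7 Tris buffer containing 50 mM KF and 100 mM NaCl, with a 10 min compound preincubation at 22 °C.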

SUDHL5 [3] = assay: Induction of caspase-3/7 activity (Caspase-Glo 3/7), SUDHL5; assay type: cell-based; conditions: caspase-3/7 induction, SUDHL5 cells, 3 h treatment, median
In short: (§2)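 Apoptosis induction measured as caspase-3/7 activity (Caspase-Glo 3/7) in DLBCL lines after 3 h treatment at 37 °C; EC50 derived relative to the reference compound's maximal induction, with C0 fixed at 1.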

SUDHL5 [4] = assay: Anti-proliferative effect (CellTiter-Glo, 72 h), SUDHL5; assay type: cell-based; conditions: SUDHL5 cells, antiproliferation, median, read-out: Antiproli SUDHL5 [M] (median)
In short: as §1

MV-4-11 = assay: Anti-proliferative effect (CellTiter-Glo, 72 h), MV-4-11; assay type: cell-based; conditions: median, read-out: IC50 antiproliferation assay MV-4-11 [M] (median)
In short: as §1

A2780 = assay: Anti-proliferative effect (CellTiter-Glo, 72 h), A2780; assay type: cell-based; conditions: A2780 cells, median, read-out: IC50 antiproliferation assay A2780 [M] (median)
In short: as §1

SUDHL5 [5] = assay: Induction of cytotoxicity (CellTiter-Glo, 5 h), SUDHL5
SUDHL10 [6] = assay: Induction of caspase-3/7 activity (Caspase-Glo 3/7), SUDHL10; assay type: cell-based; conditions: caspase-3/7 induction, SUDHL10 cells, 3 h treatment, median
In short: as §2

[7] = Homo sapiens, SU-DHL-5, 72 h, 72 h incubation
[8] = Homo sapiens, MV4-11, 72 h, MV-4-11 cells
[9] = read-out: Cytotox SUDHL10 [M] (median), SUDHL10 cells, cytotoxicity induction, CellTiter-Glo, 5 h incubation, median
[10] = read-out: Cytotox SUDHL5 [M] (median), SUDHL5 cells, cytotoxicity induction, CellTiter-Glo, 5 h incubation, median
[11] = read-out: Cytotox SUDHL10 [M] (median), SUDHL10 cells, cytotoxicity induction, CellTiter-Glo, 5 h, median
[12] = read-out: Cytotox SUDHL5 [M] (median), SUDHL5 cells, cytotoxicity induction, CellTiter-Glo, 5 h, median

## Cn1nc(COc2ccc(N3CCN(S(C)(=O)=O)CC3)cc2)c2c1COCCCCn1c(C(=O)O)c(CCCOc3cccc4ccccc34)c3cccc-2c31 (racemic) [Example 1-8, (rac)-1-methyl-3-({4-[4-(methylsulfonyl)piperazin-1-yl]phenoxy}methyl)-7-[3-(naphthalen-1-yloxy)propyl]-1,10,11,12,13,15-hexahydropyrazolo[4′,3′:9,10][1,6]oxazacycloundecino[8,7,6-hi]indole-8-carboxylic Acid]
OPM2; Homo sapiens, OPM-2, 72 h
  IC50: 1.24e-06 M
SUDHL10 [1]; Homo sapiens, SU-DHL10, 5 h, read-out: Cytotox SUDHL10 [M] (median), SUDHL10 cells, cytotoxicity induction, CellTiter-Glo, 5 h incubation, median
  IC50: 1.07e-06 M
SUDHL10 [2]; Homo sapiens, SU-DHL10, 72 h, 72 h incubation
  IC50: 1.44e-06 M
MCL-1
  IC50: 0.00187 µM
SUDHL5 [3]; Homo sapiens, SU-DHL-5, 3 h
  EC50: 0.579 µM
SUDHL5 [4]; [7]
  IC50: 9.83e-07 M
MV-4-11; [8]
  IC50: 3.57e-06 M
A2780; Homo sapiens, A2780, 72 h
  IC50: 6.31e-06 M
SUDHL5 [5]; Homo sapiens, SU-DHL-5, 5 h, read-out: Cytotox SUDHL5 [M] (median), SUDHL5 cells, cytotoxicity induction, CellTiter-Glo, 5 h incubation, median
  IC50: 8.33e-07 M
SUDHL10 [6]; Homo sapiens, SU-DHL10, 3 h
  EC50: 0.953 µM

## Cc1nn(C)c2c1-c1cccc3c(CCCOc4cccc5ccccc45)c(C(=O)O)n(c13)CCCCOC2 (single isomer, unassigned; enantiomer 1) [Example 317, (+)-1,3-dimethyl-7-[3-(naphthalen-1-yloxy)propyl]-1,10,11,12,13,15-hexahydropyrazolo[4′,3:9,10][1,6]oxazacycloundecino[8,7,6-hi]indole-8-carboxylic Acid (Enantiomer 1)]
SUDHL10 [1]; Homo sapiens, SU-DHL10, 5 h, read-out: Cytotox SUDHL10 [M] (median), SUDHL10 cells, cytotoxicity induction, CellTiter-Glo, 5 h, median
  IC50: > 3.3e-05 M
SUDHL10 [2]; Homo sapiens, SU-DHL10, 72 h, 72 h
  IC50: > 3.3e-05 M
MCL-1
  IC50: 0.0115 µM
SUDHL5 [3]; Homo sapiens, SU-DHL-5, 3 h
  EC50: 24.5 µM
SUDHL5 [4]; Homo sapiens, SU-DHL-5, 72 h, 72 h
  IC50: 2.71e-05 M
MV-4-11; [8]
  IC50: 2.34e-05 M
A2780; Homo sapiens, A2780, 72 h
  IC50: > 3.3e-05 M
SUDHL5 [5]; Homo sapiens, SU-DHL-5, 5 h, read-out: Cytotox SUDHL5 [M] (median), SUDHL5 cells, cytotoxicity induction, CellTiter-Glo, 5 h, median
  IC50: 1.55e-05 M
SUDHL10 [6]; Homo sapiens, SU-DHL10, 3 h
  EC50: > 33 µM

## COCC(=O)N1CCN(c2ccc(OCc3nn(C)c4c3-c3cccc5c(CCCOc6cccc7ccccc67)c(C(=O)O)n(c35)CCCCOC4)cc2)CC1 (single isomer, unassigned; enantiomer 2) [Example 1-29, 3-({4-[4-(methoxyacetyl)piperazin-1-yl]phenoxy}methyl)-1-methyl-7-[3-(naphthalen-1-yloxy)propyl]-1,10,11,12,13,15-hexahydropyrazolo[4′,3′:9,10][1,6]oxazacycloundecino[8,7,6-hi]indole-8-carboxylic Acid (Enantiomer 2)]
OPM2
  IC50: 4.53e-06 M
SUDHL10 [1]; [9]
  IC50: 6.87e-06 M
MCL-1
  IC50: 0.00119 µM
SUDHL5 [3]
  EC50: 2.64 µM
SUDHL5 [4]; [7]
  IC50: 3.26e-06 M
MV-4-11; [8]
  IC50: 2.58e-06 M
A2780
  IC50: 2.38e-05 M
SUDHL5 [5]; [10]
  IC50: 3.29e-06 M
SUDHL10 [6]
  EC50: 5.26 µM

## Cc1cc(OCCCc2c(C(=O)O)n3c4c(cccc24)-c2c(C)nn(C)c2COCCC3)cc(C)c1Cl (single isomer, unassigned; enantiomer 2) [Example 015, 1-[3-(4-chloro-3,5-dimethylphenoxy)propyl]-9,11-dimethyl-5,6,8,9-tetrahydro-4H-pyrazolo[4′,3′:8,9][1,5]oxazecino[7,6,5-hi]indole-2-carboxylic acid-N-ethylethanamine Salt (Enantiomer 2)]
SUDHL10 [1]; [9]
  IC50: 2.87e-05 M
SUDHL10 [2]; 72 h incubation
  IC50: 8.48e-06 M
MCL-1
  IC50: 0.00958 µM
SUDHL5 [3]
  EC50: 25.7 µM
SUDHL5 [4]; 72 h incubation
  IC50: 1.13e-05 M
MV-4-11; [8]
  IC50: 1.33e-05 M
A2780
  IC50: 1.23e-05 M
SUDHL5 [5]; [10]
  IC50: 2.1e-05 M
SUDHL10 [6]
  EC50: 29.2 µM

## CCc1c2c(nn1C)CN(C)CCCn1c(C(=O)O)c(CCCOc3cccc4ccccc34)c3cccc-2c31 (single isomer, unassigned; enantiomer 2) [Example 143, 11-ethyl-7,10-dimethyl-1-[3-(1-naphthyloxy)propyl]-4,5,6,7,8,10-hexahydropyrazolo[3′,4′:7,8][1,5]diazecino[9,10,1-hi]indole-2-carboxylic acid-N-ethylethanamine Salt (Enantiomer 2)]
SUDHL10 [1]; [9]
  IC50: 2.69e-05 M
SUDHL10 [2]; 72 h incubation
  IC50: 2.02e-05 M
MCL-1
  IC50: 0.0308 µM
SUDHL5 [3]
  EC50: 25 µM
SUDHL5 [4]; 72 h incubation
  IC50: 1.44e-05 M
MV-4-11; [8]
  IC50: 1.2e-05 M
A2780
  IC50: 1.21e-05 M
SUDHL5 [5]; [10]
  IC50: 1.36e-05 M
SUDHL10 [6]
  EC50: > 33 µM

## CCc1c2c(nn1CCN1CCOCC1)COCCCCn1c(C(=O)O)c(CCCOc3cccc4ccccc34)c3cccc-2c31 (single isomer, unassigned; enantiomer 2) [Example 203, 3-ethyl-2-[2-(morpholin-4-yl)ethyl]-7-[3-(naphthalen-1-yloxy)propyl]-2,10,11,12,13,15-hexahydropyrazolo[4′,3′:9,10][1,6]oxazacycloundecino[8,7,6-hi]indole-8-carboxylic Acid (Enantiomer 2)]
SUDHL10 [1]; [9]
  IC50: 4.31e-06 M
SUDHL10 [2]; 72 h incubation
  IC50: 1.78e-06 M
MCL-1
  IC50: 0.0021 µM
SUDHL5 [3]
  EC50: 1.61 µM
SUDHL5 [4]; 72 h incubation
  IC50: 2.19e-06 M
MV-4-11; [8]
  IC50: 2.8e-06 M
A2780
  IC50: 2.21e-05 M
SUDHL5 [5]; [10]
  IC50: 1.32e-06 M
SUDHL10 [6]
  EC50: 7.45 µM

## Cc1nn(C)c2c1-c1cccc3c(CCCOc4cccc5ccccc45)c(C(=O)O)n(c13)CCCCOC2 (single isomer, unassigned; enantiomer 2) [Example 318, (−)-1,3-dimethyl-7-[3-(naphthalen-1-yloxy)propyl]-1,10,11,12,13,15-hexahydropyrazolo[4′,3′:9,10][1,6]oxazacycloundecino[8,7,6-hi]indole-8-carboxylic Acid (Enantiomer 2)]
SUDHL10 [1]; [11]
  IC50: > 3.3e-05 M
SUDHL10 [2]; 72 h
  IC50: 2.72e-05 M
MCL-1
  IC50: 0.0131 µM
SUDHL5 [3]
  EC50: 26.4 µM
SUDHL5 [4]; 72 h
  IC50: 1.84e-05 M
MV-4-11; MV-4-11 cells
  IC50: 3.28e-05 M
A2780
  IC50: > 3.3e-05 M
SUDHL5 [5]; [12]
  IC50: 1.62e-05 M
SUDHL10 [6]
  EC50: > 33 µM

## Cn1nc(CN2CCCCC2)c2c1COCCCCn1c(C(=O)O)c(CCCOc3cccc4ccccc34)c3cccc-2c31 (single isomer, unassigned; enantiomer 2) [Example 334, 1-methyl-7-[3-(naphthalen-1-yloxy)propyl]-3-(piperidin-1-ylmethyl)-1,10,11,12,13,15-hexahydropyrazolo[4′3′:9,10][1,6]oxazacycloundecino[8,7,6-hi]indole-8-carboxylic Acid (Enantiomer 2)]
SUDHL10 [1]; [11]
  IC50: 2.67e-05 M
SUDHL10 [2]; 72 h
  IC50: 1.54e-05 M
MCL-1
  IC50: 0.0917 µM
SUDHL5 [3]
  EC50: 16.9 µM
SUDHL5 [4]; 72 h
  IC50: 1.68e-05 M
MV-4-11; [8]
  IC50: 1.47e-05 M
A2780
  IC50: 2.87e-05 M
SUDHL5 [5]; [12]
  IC50: 1.85e-05 M
SUDHL10 [6]
  EC50: 25.7 µM

## Cn1nc(CN2CC3(COC3)C2)c2c1COCCCCn1c(C(=O)O)c(CCCOc3cccc4ccccc34)c3cccc-2c31 (single isomer, unassigned; enantiomer 2) [Example 345, 1-methyl-7-[3-(naphthalen-1-yloxy)propyl]-3-(2-oxa-6-azaspiro[3.3]hept-6-ylmethyl)-1,10,11,12,13,15-hexahydropyrazolo[4′,3′:9,10][1,6]oxazacycloundecino[8,7,6-hi]indole-8-carboxylic acid-N-ethylethanamine Salt (Enantiomer 2)]
SUDHL10 [1]; [11]
  IC50: 1.32e-05 M
SUDHL10 [2]; 72 h
  IC50: 5.68e-06 M
MCL-1
  IC50: 0.026 µM
SUDHL5 [3]
  EC50: 7.02 µM
SUDHL5 [4]; 72 h
  IC50: 7.32e-06 M
MV-4-11; Homo sapiens, MV4-11, MV-4-11 cells
  IC50: 7.47e-06 M
A2780
  IC50: 1.59e-05 M
SUDHL5 [5]; [12]
  IC50: 8.32e-06 M
SUDHL10 [6]
  EC50: 12.8 µM
